# Laboratory results published in ChEMBL document CHEMBL1649297, “Mutations in ribosomal protein L3 are associated with oxazolidinone resistance in staphylococci of clinical origin” (2009).
# How the values were obtained:
# Type in all cases: functional
# Staphylococcus aureus [1] = assay: Antibacterial activity against Staphylococcus aureus NARSA NRS127 harboring rplC T433 to T435 and L3 Ser145 deletion mutant by CLSI broth microdilution assay
# [2] = tested on: Staphylococcus epidermidis; assay: Antibacterial activity against […] Staphylococcus epidermidis ATCC 12228 by CLSI broth microdilution assay
# Staphylococcus aureus [3] = assay: Antibacterial activity against methicillin-susceptible Staphylococcus aureus ATCC 29213 by CLSI broth microdilution assay
# [4] = tested on: Staphylococcus epidermidis; assay: Antibacterial activity against Staphylococcus epidermidis 1653059 harboring rplC G469A/C470G, L3 Ala157Arg and 23S rRNA G2447T mutant by CLSI broth microdilution assay
compound,measurement,setting,value
O=C(N[C@H](CO)[C@H](O)c1ccc([N+](=O)[O-])cc1)C(Cl)Cl [CHLORAMPHENICOL],MIC,Staphylococcus aureus [1],8 µg/mL
same,MIC,[2],1 µg/mL
same,MIC,Staphylococcus aureus [3],8 µg/mL
same,MIC,[4],2 µg/mL
CC(=O)NC[C@H]1CN(c2ccc(N3CCOCC3)c(F)c2)C(=O)O1 [LINEZOLID],MIC,Staphylococcus aureus [1],8 µg/mL
same,MIC,[2],1 µg/mL
same,MIC,[4],256 µg/mL
Cn1nnc(-c2ccc(-c3ccc(N4C[C@H](CO)OC4=O)cc3F)cn2)n1 [TEDIZOLID],MIC,Staphylococcus aureus [1],1 µg/mL
same,MIC,[2],0.25 µg/mL
same,MIC,Staphylococcus aureus [3],0.5 µg/mL
same,MIC,[4],16 µg/mL
C=C[C@]1(C)C[C@@H](OC(=O)CSCCN(CC)CC)[C@]2(C)[C@H](C)CC[C@]3(CCC(=O)[C@H]32)[C@@H](C)[C@@H]1O [TIAMULIN],MIC,Staphylococcus aureus [1],4 µg/mL
same,MIC,[2],0.5 µg/mL
same,MIC,Staphylococcus aureus [3],1 µg/mL
same,MIC,[4],8 µg/mL
